# Measured values reported in patent publication US6815425B1 (The United States of America as represented by the …, priority 1999, dated 2004).
# Entries after “also recorded” stand apart in the source; their conditions may differ.
# Tests used:
# [1] = animal studies / rodents; cited from earlier work
# [2] = test system: focal ischemia; conditions: rat; also when given 3 hours or 5 hours after start of recirculation (temporary model); cited from earlier work
# [3] = test system: volume of necrosis; conditions: administered 15 min prior or 30 min post TBI; preliminary studies; cited from earlier work
# [4] = cited from earlier work; for plasma levels of thyroid hormone: in vivo
# [5] = test system: glutamate-stimulated Ca2+ dynamics; test: Glutamate-stimulated Ca2+ dynamics after pre-incubation; type: cell-based
# [6] = test system: serum enzyme thyroliberinase; conditions: cited from earlier work
# [7] = cited from earlier work
# [8] = test system: forebrain neurons; test: Glutamate-induced neurotoxicity, colorimetric MTT assay, cultured forebrain neurons; type: cell-based, rat
# Description: (§1) Primary cultures of neurons derived from the forebrains and spinal cords of E15 fetuses were prepared and maintained in culture for eight days. […] Extending these observations, we compared the neuroprotective efficacy of EEP and TRH.
# [9] = test system: striatal lesions; conditions: striatal injections; cited from earlier work
# [10] = cited from earlier work; remark: listed apart in the source
# [11] = test system: locomotor activity; conditions: administered to rats; cited from earlier work
# [12] = rats, intraperitoneal 1.0 mg/kg; cited from earlier work
# [13] = test system: immobility in the Porsolt swim test; conditions: administered to rats; cited from earlier work
# [14] = molecular target: T1, TRH receptor (Homo sapiens, UniProt P34981); conditions: reported; cited from earlier work
# T1 sequence (P34981 1-398): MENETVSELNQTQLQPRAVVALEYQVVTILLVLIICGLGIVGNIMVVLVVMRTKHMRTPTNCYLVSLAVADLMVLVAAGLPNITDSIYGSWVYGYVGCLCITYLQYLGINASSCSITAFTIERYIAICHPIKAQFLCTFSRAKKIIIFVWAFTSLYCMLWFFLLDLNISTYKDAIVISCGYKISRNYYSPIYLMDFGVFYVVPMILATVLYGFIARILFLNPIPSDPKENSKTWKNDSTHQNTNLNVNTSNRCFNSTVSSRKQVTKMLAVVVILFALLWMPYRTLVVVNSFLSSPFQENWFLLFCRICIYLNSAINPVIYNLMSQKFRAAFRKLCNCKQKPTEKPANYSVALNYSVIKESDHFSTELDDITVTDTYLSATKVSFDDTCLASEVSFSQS
# [15] = compared with TRH; cited from earlier work
# [16] = test system: cultured forebrain neurons; test: Neuroprotection by EEP with or without SPBN in cultured forebrain neurons exposed to Glu, MTT assay; type: cell-based, rat; conditions: SPBN 10 mM where present, Glu 100 μM, 1 h
# Description: Neuroprotection evident at higher concentrations of the tripeptide is further enhanced by the addition of the nitrone. Percent neuroprotection=100×((viabilitytest−vibilitymean Glu))/(viabilitymean control−viabilitymean Glu)). Neuroprotection was then assessed by conducting the colorimetric MTT assay.
# [17] = test system: spinal cord neurons; test: Glutamate-induced neurotoxicity, colorimetric MTT assay, cultured spinal cord neurons; type: cell-based, rat; conditions: 100 μM glutamate 30 min
# Description: as §1
molecule,measurement,setting,value
"CC(C)(C)[N+]([O-])=Cc1ccccc1 [PBN, α-Phenyl-N-tert-butylnitrone]",toxicity,[1],significant toxicity at high doses; also recorded: toxic in rodents at high doses
CC(C)(C)[N+]([O-])=Cc1ccc(S(=O)(=O)[O-])cc1S(=O)(=O)[O-].[Na+].[Na+] [NXY-059],efficacy in temporary and permanent focal ischemia,[2],effective
same,volume of necrosis,[3],effective in decreasing volume of necrosis
"NC(=O)[C@@H]1CCCN1C(=O)[C@H](Cc1cnc[nH]1)NC(=O)[C@@H]1CCC(=O)N1 [TRH, pyroglutamate-histidine-proline-amide, reference compound]",plasma levels of thyroid hormone,[4],elevates
same,effect on glutamate-stimulated Ca2+ dynamics,[5],clearly does
same,hydrolysis by serum enzyme thyroliberinase,[6],hydrolyzed
same,hydrolysis by pyroglutamylpeptidase II found in blood,"[7]; injected, blood",rapidly hydrolyzed
same,effect on glutamate-mediated neurotoxicity,[8],relatively little effect
"CC(C)(C)[N+]([O-])=Cc1ccccc1S(=O)(=O)O [SPBN, N-tert-Butyl-α-(2-sulfophenyl)nitrone]",toxicity,[1],without significant toxicity; also recorded: Toxicity has not been a problem
same,"volume of lesions induced by NMDA, kainic acid, AMPA, MPP+, 3-acetyl pyridine and malonate",[9],decreasing the volume of the lesions
same,solubility in aqueous solutions,[10],soluble
pGLU-GLU-PRO-NH2 [EEP],efficacy as a releaser of thyroid stimulating hormone or triiodothyronine,[4]; compared to thyrotropin releasing hormone,minimal efficacy
same,plasma levels of thyroid hormone,[4],does not elivate
same,locomotor activity,[11],increases
same,effect on glutamate-stimulated Ca2+ dynamics,[5],does not affect
same,increase of EEP level in amygdala,[12],7 fold
same,increase of EEP level in cortex,[12],14 fold
same,increase of EEP level in the eye,[12],Over one hundred
same,increase of EEP level in the hypothalamus,[12],2 fold
same,increase of EEP level in the medulla,[12],4 fold
same,increase of EEP level in the pituitary,[12],11 fold
same,hydrolysis by serum enzyme thyroliberinase,[6],not hydrolyzed
same,immobility in the Porsolt swim test,[13],decreases
same,affinity for the TRH receptor,[14],low affinity
same,stability in follicular fluid,[15],more stable than TRH
same,Percent Neuroprotection,[16]; EEP 300 μM,13.321 ± 7.319%
same,Percent Neuroprotection,[16]; EEP 1000 μM,35.784 ± 15.431%
same,degradation in human serum,[7]; human serum,not degraded at all
same,reduction of Glu-induced toxicity,"[8]; 500 μM EEP, 100 μM glutamate 30 min, n=7",29.8±5.6%
same,neuroprotection (reduction of Glu-induced toxicity),"[8]; 1 mM EEP, 100 μM glutamate 30 min, n=7",54.1±5.3%
same,neuroprotective efficacy / potency relative to TRH,"[8]; EEP compared with TRH, neuron type not stated",over three times as effective as TRH; also recorded: three times the neuroprotective potency of TRH
same,reduction of Glu-induced toxicity,"[17]; 500 μM EEP, n=7",20±2.0%
same,neuroprotection (reduction of Glu-induced toxicity),"[17]; 1 mM EEP, n=8",38.9±4.9%
